In the SangsterLogP compilation:

Assay: method code SF-AS, from PMID: 6637504
Conditions: pH 5.0

| SMILES | logD |
| --- | --- |
| Cc1cccn2c(=O)c3c(nc12)CCC3 | 1.72 |
| CCc1c(C)nc2cc(C)cc(C)n2c1=O | 1.8 |
| O=c1c2ccccc2nc2n1CCC2 | 1.07 |
| CCCc1c(C)nc2ccccn2c1=O | 1.85 |
| CC1CCCc2nc3c(c(=O)n21)CCC3 (stereo not drawn) | 1.21 |
| O=c1c2c(nc3ccccn13)CCC2 | 1.19 |

Results, then the molecule that gave them:

| logD | SMILES |
| --- | --- |
| 1.2 | CC1CCc2nc3c(c(=O)n2C1)CCC3 (stereo not drawn) |
| 1.41 | O=c1c2c(nc3n1CCC3)CCCCCC2 |
| 0.72 | O=c1c2c(nc3n1CCCC3)CCC2 |
| 0.83 | O=c1c2c(nc3n1CCC3)CCCC2 |
| 1.25 | O=c1c2c(nc3n1CCC3)CCCCC2 |
| 1.22 | CC1CCn2c(nc3c(c2=O)CCC3)C1 (stereo not drawn) |
| 2.77 | O=c1c2c(nc3n1CCCCCC3)CCCCCC2 |
